What follows are compounds tested against Sodium-dependent dopamine transporter (Rattus norvegicus, UniProt P23977) (assay: Inhibition of [3H]dopamine uptake at DAT in Sprague-Dawley rat striatum synaptosome).
Type: tissue-based

Sequence of Sodium-dependent dopamine transporter (P23977 whole entry): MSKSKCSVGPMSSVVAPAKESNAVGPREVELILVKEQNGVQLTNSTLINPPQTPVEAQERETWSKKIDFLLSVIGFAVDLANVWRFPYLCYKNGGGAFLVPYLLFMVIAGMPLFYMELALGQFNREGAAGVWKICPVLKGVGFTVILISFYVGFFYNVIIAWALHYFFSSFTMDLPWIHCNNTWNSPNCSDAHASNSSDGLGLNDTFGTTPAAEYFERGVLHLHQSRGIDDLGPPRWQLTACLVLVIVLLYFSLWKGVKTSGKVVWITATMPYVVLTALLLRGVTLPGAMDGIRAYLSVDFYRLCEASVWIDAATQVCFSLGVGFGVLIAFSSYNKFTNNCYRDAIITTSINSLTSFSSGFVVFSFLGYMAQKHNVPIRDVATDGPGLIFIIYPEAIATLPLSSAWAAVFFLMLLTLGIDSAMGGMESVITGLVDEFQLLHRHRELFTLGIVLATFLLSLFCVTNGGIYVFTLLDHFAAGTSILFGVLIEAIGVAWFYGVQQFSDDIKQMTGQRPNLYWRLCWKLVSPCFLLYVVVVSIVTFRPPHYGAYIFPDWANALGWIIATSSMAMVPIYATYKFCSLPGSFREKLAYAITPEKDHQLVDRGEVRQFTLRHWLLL

`Fc1ccc(C(OCCN2CC3CC(C2)N3Cc2cc3ccccc3s2)c2ccc(F)cc2)cc1` and `Fc1ccc(C(OCCN2CC3CC(C2)N3Cc2cc3ccccc3o2)c2ccc(F)cc2)cc1` are within 1.5-fold of each other in Ki: 35 nM for the first, 37.5 nM for the second.

`Fc1ccc(C(OCCN2CC3CC(C2)N3CC2=Cc3ccccc3C2)c2ccc(F)cc2)cc1` and `Fc1ccc(C(OCCN2CC3CC(C2)N3Cc2cc3ccccc3[nH]2)c2ccc(F)cc2)cc1` are within 1.5-fold of each other in Ki: 6.5 nM for the first, 5.5 nM for the second.

`Cc1ccccc1/C=C/CN1C2CC1CN(CCOC(c1ccc(F)cc1)c1ccc(F)cc1)C2` and `Fc1ccc(C(OCCN2CC3CC(C2)N3C/C=C/c2ccccc2)c2ccc(F)cc2)cc1` are within 1.5-fold of each other in Ki: 6.25 nM for the first, 9.1 nM for the second.

`Fc1ccc(C(OCCN2CC3CC(C2)N3C/C=C/c2cccs2)c2ccc(F)cc2)cc1` and `Fc1ccc(C(OCCN2CC3CC(C2)N3C/C=C/c2ccco2)c2ccc(F)cc2)cc1` are within 1.5-fold of each other in Ki: 12.6 nM for the first, 8.8 nM for the second.

Work on `Fc1ccc(C(OCCN2CC3CC(C2)N3C/C=C/c2ccc3ccccc3c2)c2ccc(F)cc2)cc1` yielded a Ki of 45.6 nM.

Reference: ChEMBL document CHEMBL1147946, “3-{2-[Bis-(4-fluorophenyl)methoxy]ethyl}-6-substituted-3,6-diazabicyclo[3.1.1]heptanes as novel potent dopamine uptake inhibitors” (Bioorg Med Chem, 2007)
